In patent publication US10092574B2, “Inhibitors of polynucleotide repeat-associated RNA foci and uses thereof” (VALORISATION-RECHERCHE, LIMITED PARTNERSHIP, priority 2013, dated 2018):

Columns and labels:
[1] = system: CUG-repeat RNA foci (mutant DMPK mRNA); test: FISH detection and quantification of CUG-repeat RNA foci in DM1 patient myoblasts; type: cell-based, human; conditions: DM1 myoblasts ~1250 CTG, 7 days, 15 μM compound 15 or 5 μM compound 32, vs DMSO (FIG. 4)
Experimental: (§1) Human myoblasts were obtained from the Myosix institute associated with the Association Frangaise contre les Myopathies (AFM). Five primary myoblast lines were obtained as controls, and one line from a DM1 patient with a 3.8 Kb CTG triplet amplification corresponding to approximately 1250 CTG repeats. The human myoblasts are cultivated in HAM-F10 media (SIGMA N6635) with 15% FBS, 1% chick embryo extract, and 390 ng/ml of dexamethasone. One day before adding compounds, 2×10^5 cells were plated in 100 mm plates (for CUGBP1 western blot or RT-PCR alternative splicing assay) or 2×10^4 cells/well are seeded in 12-well plates containing 12 mm round glass coverslips (for FISH to detect RNA foci). […]
For fluorescent in situ hybridization (FISH), cells grown on glass coverslips were fixed in PBS containing 4% paraformaldehyde, dehydrated for 2 hours in 70% ethanol, and incubated overnight with 10 ng of probe in 2×SSC 40% formamide at 37° C. […] To quantify the CUG repeat RNA aggregates, the 3D images of the foci were first processed by maximum intensity projection with the MetaMorph™ software (Molecular Devices Inc.), resulting in a 2D image containing all the foci in each cell. […] For each treatment condition, 60 to 80 cells were analyzed and all the data points were presented, with the median value indicated. […]

MBNL2 exon 7 = test: RT-PCR alternative splicing assay, MBNL2 exon 7; type: cell-based, human; conditions: DM1 myoblasts
Experimental: as §1
For Western blots, CUGBP1 was detected with the 3B1-3D11 monoclonal antibody (mAb) (SIGMA C5112) and GAPDH was detected with the 6C5 mAb (Millipore MAB374). The enhanced chemiluminescence signal (ECL) was acquired and quantified with the ChemiDoc™ MP imaging system (Bio-Rad). […] The alternative splicing of the hnRNPA2/B1 transcript was detected with the primers 5′-[…]-3′ (SEQ ID NO:7) and 5′-[…]-3′ (SEQ ID NO:8). PCR was performed with Taq using standard conditions but the number of amplification cycles was optimized to be in the quantitative range for each gene. […]

SMILES | decrease in RNA foci formation (surface occupied by RNA foci in the nucleus) [1] | inclusion of MBNL2 exon 7 (MBNL2 exon 7; 20 μM, 7 days, from 40% (FIG. 8D)) | dose-response effect on splicing of MBNL2 mRNA (MBNL2 exon 7; 5 to 60 μM, 7 days (FIG. 12A))
CCCN(CCC)S(=O)(=O)c1ccc(NS(=O)(=O)Cc2ccccc2)cc1 [Compound 15] | more than two-fold decrease | 25% | 
CCCc1c(C(=O)N(Cc2ccccc2)Cc2cccs2)cnn1-c1ccccc1 [Compound 32] | more than two-fold decrease |  | clear dose-response effect
